Reference: US8168779B2, “Anhydrous crystalline β-maltose, its preparation and uses” (priority 2006, dated 2012)

Columns and labels:
Format in all cases: physicochemical
[1] = Powderizing test by admixing dehydrated ethanol
Procedure: The usefulness of the crystal was judged by the amount of deionized water added to the limit of keeping the powder form. The form of the powder was evaluated by the following four phases: (1) powder; (2) lump (it keeps a powder form while it comprises lumps); (3) cake; and (4) paste. As a control, the anhydrous crystalline α-maltose used in Example 2 was treated by the same procedure. The test was carried out in a room where the temperature was kept at 25° C. The results of the test and the form of each sample after admixing with 1.25 ml of deionized water are shown in Table 7 and FIG. 15, respectively. […] The results of the test and the form of each sample after admixing with 6 ml of dehydrated ethanol are shown in Table 8 and FIG. 16, respectively.

[2] = Powderizing test by admixing deionized water; details: 25° C.
Procedure: The usefulness of the crystal was judged by the amount of deionized water added to the limit of keeping the powder form. The form of the powder was evaluated by the following four phases: (1) powder; (2) lump (it keeps a powder form while it comprises lumps); (3) cake; and (4) paste. As a control, the anhydrous crystalline α-maltose used in Example 2 was treated by the same procedure. The test was carried out in a room where the temperature was kept at 25° C. The results of the test and the form of each sample after admixing with 1.25 ml of deionized water are shown in Table 7 and FIG. 15, respectively.

[3] = Specific surface area by nitrogen adsorption isotherms (BET); details: BET method, listed as anhydrous crystalline β-maltose converted by the ethanol treatment
Procedure: About 3 g of the anhydrous crystalline β-maltose, obtained in Example 1, was dried in the apparatus under a reduced pressure at about 40° C. for about 15 hours as a pretreatment, and then used for the measurement of specific surface area by the nitrogen adsorption isotherms. The result was analyzed by conventional BET (Brunnauer, Emmet, and Teller) method.

[4] = Hygroscopicity test (moisture content under controlled relative humidity); details: 27° C.
Procedure: Moisture contents of the samples at respective periods were measured based on the change of weight from the start of the test. The moisture contents of the samples at the start of the test were measured by Karl Fischer's method.

## OC[C@H]1O[C@H](O[C@H]2[C@H](O)[C@@H](O)[C@H](O)O[C@@H]2CO)[C@H](O)[C@@H](O)[C@@H]1O [anhydrous crystalline β-maltose]
[1]; 10 g crystal + 3.0 ml ethanol (24.3 v/w %)
  Form of the powder after admixing dehydrated ethanol: Powder form
[1]; 10 g crystal + 3.5 ml ethanol (27.5 v/w %)
  Form of the powder after admixing dehydrated ethanol: Powder form
[1]; 10 g crystal + 4.0 ml ethanol (30.5 v/w %)
  Form of the powder after admixing dehydrated ethanol: Powder form
[1]; 10 g crystal + 4.5 ml ethanol (33.3 v/w %)
  Form of the powder after admixing dehydrated ethanol: Powder form
[1]; 10 g crystal + 5.0 ml ethanol (36.0 v/w %)
  Form of the powder after admixing dehydrated ethanol: Powder form
[1]; 10 g crystal + 5.5 ml ethanol (38.5 v/w %)
  Form of the powder after admixing dehydrated ethanol: Powder form
[1]; 10 g crystal + 6.0 ml ethanol (40.9 v/w %)
  Form of the powder after admixing dehydrated ethanol: Powder form
[1]; 10 g crystal + 7.0 ml ethanol (45.3 v/w %)
  Form of the powder after admixing dehydrated ethanol: Powder form
[1]; 10 g crystal + 8.0 ml ethanol (49.3 v/w %)
  Form of the powder after admixing dehydrated ethanol: Powder form
[1]; 10 g crystal + 9.0 ml ethanol (52.9 v/w %)
  Form of the powder after admixing dehydrated ethanol: Lump form
[1]; 10 g crystal + 10.0 ml ethanol (56.2 v/w %)
  Form of the powder after admixing dehydrated ethanol: Lump form
[1]; 10 g crystal + 11.0 ml ethanol (59.2 v/w %)
  Form of the powder after admixing dehydrated ethanol: Cake form
[2]; 10 g crystal + 0.25 ml water (moisture content 2.4%, w/w)
  Form of the powder after admixing deionized water: Powder form
[2]; 10 g crystal + 0.50 ml water (moisture content 4.8%, w/w)
  Form of the powder after admixing deionized water: Powder form
[2]; 10 g crystal + 0.75 ml water (moisture content 7.0%, w/w)
  Form of the powder after admixing deionized water: Powder form
[2]; 10 g crystal + 1.00 ml water (moisture content 9.1%, w/w)
  Form of the powder after admixing deionized water: Powder form
[2]; 10 g crystal + 1.25 ml water (moisture content 11.1%, w/w)
  Form of the powder after admixing deionized water: Powder form
[2]; 10 g crystal + 1.50 ml water (moisture content 13.0%, w/w)
  Form of the powder after admixing deionized water: Lump form
[2]; 10 g crystal + 1.75 ml water (moisture content 14.9%, w/w)
  Form of the powder after admixing deionized water: Lump form
[2]; 10 g crystal + 2.00 ml water (moisture content 16.7%, w/w)
  Form of the powder after admixing deionized water: Lump form
[3]
  Specific surface area: 3.39 m^2/g
[4]; RH 47% (lithium nitrate), 0 hour (start, Karl Fischer), listed as AC* β-Mal (Present invention)
  Moisture content of samples: 0.32 %, w/w
[4]; RH 47% (lithium nitrate), 2 hours, listed as AC* β-Mal (Present invention)
  Moisture content of samples: 0.30 %, w/w
[4]; RH 47% (lithium nitrate), 4 hours, listed as AC* β-Mal (Present invention)
  Moisture content of samples: 0.28 %, w/w
[4]; RH 47% (lithium nitrate), 24 hours, listed as AC* β-Mal (Present invention)
  Moisture content of samples: 0.27 %, w/w
[4]; RH 47% (lithium nitrate), 96 hours, listed as AC* β-Mal (Present invention)
  Moisture content of samples: 0.34 %, w/w
[4]; RH 47% (lithium nitrate), 192 hours, listed as AC* β-Mal (Present invention)
  Moisture content of samples: 0.28 %, w/w
[4]; RH 58% (sodium bromide), 0 hour (start, Karl Fischer), listed as AC β-Mal (Present invention)
  Moisture content of samples: 0.32 %, w/w
[4]; RH 58% (sodium bromide), 2 hours, listed as AC β-Mal (Present invention)
  Moisture content of samples: 0.32 %, w/w
[4]; RH 58% (sodium bromide), 4 hours, listed as AC β-Mal (Present invention)
  Moisture content of samples: 0.33 %, w/w
[4]; RH 58% (sodium bromide), 6 hours, listed as AC β-Mal (Present invention)
  Moisture content of samples: 0.36 %, w/w
[4]; RH 58% (sodium bromide), 8 hours, listed as AC β-Mal (Present invention)
  Moisture content of samples: 0.35 %, w/w
[4]; RH 58% (sodium bromide), 24 hours, listed as AC β-Mal (Present invention)
  Moisture content of samples: 0.35 %, w/w
[4]; RH 58% (sodium bromide), 96 hours, listed as AC β-Mal (Present invention)
  Moisture content of samples: 1.47 %, w/w
[4]; RH 58% (sodium bromide), 192 hours, listed as AC β-Mal (Present invention)
  Moisture content of samples: 4.16 %, w/w
[4]; RH 75% (sodium chloride), 0 hour (start, Karl Fischer), listed as AC β-Mal (Present invention)
  Moisture content of samples: 0.32 %, w/w
[4]; RH 75% (sodium chloride), 2 hours, listed as AC β-Mal (Present invention)
  Moisture content of samples: 0.66 %, w/w
[4]; RH 75% (sodium chloride), 4 hours, listed as AC β-Mal (Present invention)
  Moisture content of samples: 2.37 %, w/w
[4]; RH 75% (sodium chloride), 6 hours, listed as AC β-Mal (Present invention)
  Moisture content of samples: 3.93 %, w/w
[4]; RH 75% (sodium chloride), 8 hours, listed as AC β-Mal (Present invention)
  Moisture content of samples: 4.51 %, w/w
[4]; RH 75% (sodium chloride), 24 hours, listed as AC β-Mal (Present invention)
  Moisture content of samples: 4.54 %, w/w
[4]; RH 75% (sodium chloride), 96 hours, listed as AC β-Mal (Present invention)
  Moisture content of samples: 4.57 %, w/w
[4]; RH 75% (sodium chloride), 192 hours, listed as AC β-Mal (Present invention)
  Moisture content of samples: 5.19 %, w/w
[4]; RH 90% (barium chloride), 0 hour (start, Karl Fischer), listed as AC β-Mal (Present invention)
  Moisture content of samples: 0.32 %, w/w
[4]; RH 90% (barium chloride), 2 hours, listed as AC β-Mal (Present invention)
  Moisture content of samples: 1.72 %, w/w
[4]; RH 90% (barium chloride), 4 hours, listed as AC β-Mal (Present invention)
  Moisture content of samples: 4.53 %, w/w
[4]; RH 90% (barium chloride), 6 hours, listed as AC β-Mal (Present invention)
  Moisture content of samples: 4.79 %, w/w
[4]; RH 90% (barium chloride), 8 hours, listed as AC β-Mal (Present invention)
  Moisture content of samples: 4.58 %, w/w
[4]; RH 90% (barium chloride), 24 hours, listed as AC β-Mal (Present invention)
  Moisture content of samples: 4.66 %, w/w
[4]; RH 90% (barium chloride), 96 hours, listed as AC β-Mal (Present invention)
  Moisture content of samples: 4.82 %, w/w
[4]; RH 90% (barium chloride), 192 hours, listed as AC β-Mal (Present invention)
  Moisture content of samples: 5.38 %, w/w
